Data reported in ChEMBL document CHEMBL3351886.
Active and inactive are the calls of the source. No cut-off for these calls is given here.

What was measured:
Format in all cases: cell-based
[1] = system: NG108-15; test: Agonist activity at AT2 receptor in rat and mouse hybridoma NG108-15 cells assessed as induction of neurite outgrowth at 100 nM after 3 days by phase contrast microscopy
[2] = system: NG108-15; test: Agonist activity at AT2 receptor in rat and mouse hybridoma NG108-15 cells assessed as induction of neurite outgrowth at 100 nM after 3 days in presence of 1 uM AT2 receptor antagonist PD 123,319 by phase contrast microscopy
[3] = system: NG108-15; test: Antagonist activity at AT2 receptor in rat and mouse hybridoma NG108-15 cells assessed as reduction in angiotensin-2-induced neurite outgrowth at 100 nM after 3 days by phase contrast microscopy

SMILES	Activity [1]	Activity [2]	inhibition [3]
CC[C@H](C)[C@H](NC(=O)[C@@H]1CCCN1C(=O)[C@H](Cc1c[nH]cn1)NC(=O)[C@@H](NC(=O)[C@H](Cc1ccc(O)cc1)NC(=O)[C@@H](NC(=O)[C@H](CCCN=C(N)N)NC(=O)CNC)C(C)C)[C@@H](C)CC)C(=O)O	Active	inactive	inactive
CNCC(=O)N[C@@H](CCCNC(=N)N)C(=O)N[C@H](C(=O)N[C@@H](Cc1ccc(O)cc1)C(=O)N[C@H](C(=O)N[C@@H](Cc1cnc[nH]1)C(=O)N1CCC[C@H]1C(=O)N[C@@H](C)C(=O)O)C(C)C)C(C)C	Active	inactive	inactive
CC[C@H](C)[C@H](NC(=O)[C@H](Cc1ccc(O)cc1)NC(=O)[C@@H](NC(=O)[C@H](CCCNC(=N)N)NC(=O)[C@@H](N)CC(=O)O)C(C)C)C(=O)N[C@@H](Cc1cnc[nH]1)C(=O)N1CCC[C@H]1C(=O)N[C@@H](Cc1ccccc1)C(=O)O	Active	inactive	
